Entries after “also recorded” stand apart in the source; their conditions may differ. Like-named read-outs stand apart in the source and are kept apart here. Marks after values point to notes of the source that are not given here.
What was measured:
OR4S2 [1] = target: T1, OR4S2 (Homo sapiens, UniProt Q8NH73); experiment: cell-based; assay type: cell-based
T1 construct: expressed in transfected cells; host or cells: HEK293T stably expressing human RTP1S(V227I) and RTP2(L220R)
From the text: (§1) To create an expression plasmid, an OR coding sequence fused at the end of TM7 to the desired C-terminus sequence was synthesized by a DNA synthesis service provider (BioCat GmbH, Germany) and inserted into pcDNA3.1(+) (Invitrogen, MA, USA) downstream of the CMV promoter sequence (SEQ ID NO: 82) using BamHI and Notl restriction sites. All the synthetic OR nucleotide sequences described below in Examples 1-15 further contained at their N-terminus a nucleotide sequence encoding a signal peptide (mmLucy-FLAG-rho, SeQ ID NOs: 80, 81) and at the C-terminus the bgh terminator sequence (SEQ ID NO: 83). All the OR expression plasmids also contain a Kozak sequence (GCCACC) between the BamHI restriction site and the start codon of the signal peptide. These plasmids thus contain a constitutively expressed OR gene.

OR4S2 [2] = target: T2, OR4S2 (Homo sapiens, UniProt Q8NH73, A290K); experiment: cell-based; assay type: cell-based
T2 construct: expressed in transfected cells; host or cells: HEK293T stably expressing human RTP1S(V227I) and RTP2(L220R)
From the text: as §1

OR4S2 [3] = experiment: cell-based; assay type: cell-based, human
From the text: as §1

OR10J5 = target: T3, OR10J5 (Homo sapiens, UniProt Q8NHC4); experiment: OR10J5 (SEQ ID NO: 86) dose-response of isomers, EC20% relative to positive control; assay type: cell-based; conditions: 20 % of positive control (100µM Mahonial); OR10J5 with SEQ ID NO: 86
T3 construct: expressed in transfected cells; host or cells: HEK293T cells stably expressing human RTP1S (V227I) and RTP2 (L220R)
T3 sequence (Q8NHC4 with tags, fused parts or gaps): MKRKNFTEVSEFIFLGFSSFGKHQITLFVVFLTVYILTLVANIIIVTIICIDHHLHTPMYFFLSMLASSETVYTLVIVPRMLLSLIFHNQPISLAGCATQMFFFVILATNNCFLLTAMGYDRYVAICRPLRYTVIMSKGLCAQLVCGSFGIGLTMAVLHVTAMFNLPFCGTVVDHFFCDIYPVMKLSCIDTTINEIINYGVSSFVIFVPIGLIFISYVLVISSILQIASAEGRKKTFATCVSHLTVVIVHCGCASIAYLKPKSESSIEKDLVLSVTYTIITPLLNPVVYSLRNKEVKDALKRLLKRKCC
From the text: Once a strong ligand is known for a given OR and the concentration of that ligand for maximal OR activation, this ligand (tested at its maximal inducing concentration) can be introduced as a positive control into the experiment, and fold-luciferase can be reported as % activation of the positive control according to the following formula: % activation = (Fold luciferase activation test compound−1)/(Fold luciferase activation positive control−1) × 100 [formula]
Activation of OR10J5 with the C-terminal domain of SEQ ID NO: 86 by (S,E)-10-hydroxy-4,8-dimethyldec-4-enal or (R,E)-10-hydroxy-4,8-dimethyldec-4-enal was measured in a dose-response analysis.
Potency of the two tested OR10J5 ligands is expressed as the EC20% value, which is the concentration that leads to a 20 % increase of the luciferase activity relative to the positive control (100µM, Mahonial; (4E)-9-hydroxy-5,9-dimethyl-4-Decenal). […] Because of the difference in EC20%, a much lower concentration of the (S,E)-isomer is needed to activate the receptor compared to the concentration needed of the (R,E)-isomer. […] This example further illustrates the usefulness of the improved assay to determine the most odor-active isomers.

OR10H5 [4] = target: T4, OR10H5 (Homo sapiens, UniProt Q8NGA6); experiment: Luciferase dose-response, wild-type vs changed C-terminus (SEQ ID NO: 86); assay type: cell-based
T4 construct: expressed in transfected cells; host or cells: HEK293T cells stably expressing human RTP1S (V227I) and RTP2 (L220R)
From the text: as §1
T4 sequence (Q8NGA6 with tags, fused parts or gaps): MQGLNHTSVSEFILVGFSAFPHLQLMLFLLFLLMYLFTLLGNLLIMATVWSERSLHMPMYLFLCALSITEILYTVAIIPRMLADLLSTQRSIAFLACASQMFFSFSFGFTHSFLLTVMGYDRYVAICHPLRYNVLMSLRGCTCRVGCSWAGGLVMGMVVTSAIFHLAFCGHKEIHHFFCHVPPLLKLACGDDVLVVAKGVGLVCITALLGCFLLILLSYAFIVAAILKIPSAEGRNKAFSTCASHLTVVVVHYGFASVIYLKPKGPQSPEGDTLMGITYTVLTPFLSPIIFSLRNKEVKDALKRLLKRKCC

OR10H5 [5] = experiment: as above; assay type: cell-based, human
From the text: as §1

OR10H5 [6] = target: T5, OR10H5 (Homo sapiens, UniProt Q8NGA6); experiment: as above; assay type: cell-based; conditions: wild-type
T5 construct: expressed in transfected cells; host or cells: HEK293T cells stably expressing human RTP1S (V227I) and RTP2 (L220R)
From the text: as §1
T5 sequence (Q8NGA6 whole entry): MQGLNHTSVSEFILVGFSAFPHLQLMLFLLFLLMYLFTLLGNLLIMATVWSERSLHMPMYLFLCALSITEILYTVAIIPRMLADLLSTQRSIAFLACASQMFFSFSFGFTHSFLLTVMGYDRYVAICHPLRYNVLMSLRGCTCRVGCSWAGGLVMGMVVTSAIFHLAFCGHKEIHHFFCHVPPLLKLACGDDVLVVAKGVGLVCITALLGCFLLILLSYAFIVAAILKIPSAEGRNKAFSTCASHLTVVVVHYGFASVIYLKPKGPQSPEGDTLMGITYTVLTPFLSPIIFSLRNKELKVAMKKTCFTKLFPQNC

OR1C1 [7] = target: T6, OR1C1 (Homo sapiens, UniProt Q15619); experiment: cell-based; assay type: cell-based
T6 construct: expressed in transfected cells; host or cells: HEK293T cells stably expressing human RTP1S (V227I) and RTP2 (L220R)
From the text: as §1
T6 sequence (Q15619 whole entry): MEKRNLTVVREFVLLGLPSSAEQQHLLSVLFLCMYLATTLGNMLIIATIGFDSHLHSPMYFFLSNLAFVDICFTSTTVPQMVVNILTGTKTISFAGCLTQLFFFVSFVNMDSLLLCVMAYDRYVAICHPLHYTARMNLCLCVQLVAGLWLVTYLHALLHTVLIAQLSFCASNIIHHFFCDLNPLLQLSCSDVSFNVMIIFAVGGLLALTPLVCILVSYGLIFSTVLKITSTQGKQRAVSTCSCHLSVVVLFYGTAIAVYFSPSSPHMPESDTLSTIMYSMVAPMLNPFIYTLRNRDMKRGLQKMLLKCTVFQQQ

OR1C1 [8] = target: T7, OR1C1 (Homo sapiens, UniProt Q15619); experiment: cell-based; assay type: cell-based; remark: listed apart in the source
T7 construct: expressed in transfected cells; host or cells: HEK293T cells stably expressing human RTP1S (V227I) and RTP2 (L220R)
From the text: as §1
T7 sequence (Q15619 with tags, fused parts or gaps): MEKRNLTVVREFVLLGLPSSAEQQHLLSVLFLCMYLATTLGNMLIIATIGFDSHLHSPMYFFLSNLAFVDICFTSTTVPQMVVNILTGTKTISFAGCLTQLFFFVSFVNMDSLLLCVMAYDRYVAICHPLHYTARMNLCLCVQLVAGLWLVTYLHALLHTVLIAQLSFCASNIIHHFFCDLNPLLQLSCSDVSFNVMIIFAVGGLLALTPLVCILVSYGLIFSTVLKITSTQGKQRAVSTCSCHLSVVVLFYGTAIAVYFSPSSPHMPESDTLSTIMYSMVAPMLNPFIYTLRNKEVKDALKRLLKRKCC

OR1C1 [9] = experiment: cell-based; assay type: cell-based, human
From the text: as §1

OR14J1 = target: T8, OR14J1 (Homo sapiens, UniProt Q9UGF5); experiment: Activation of modified OR14J1 (SEQ ID NO: 221), library hit and dose-response; assay type: cell-based; conditions: SEQ ID 221
T8 construct: expressed in transfected cells; host or cells: HEK293T stably expressing human RTP1S(V227I) and RTP2(L220R) (general method)
Method: Parallel transfection experiments were conducted with all these plasmids (n = 408) and cells expressing the different OR were stimulated with one given ligand at a time, tested at the maximal, clearly non-cytotoxic concentration. In total 26 different ligands were tested on the full library of class II receptors.
Table 16. Ligands tested on the full library of OR and cognate receptors identified for these ligands

OR52E8 [10] = target: T9, OR52E8 (Homo sapiens, UniProt Q6IFG1); experiment: cell-based; assay type: cell-based; conditions: read-out: Potency EC50
T9 construct: expressed in transfected cells; host or cells: HEK293T stably expressing human RTP1S(V227I) and RTP2(L220R)
From the text: as §1

OR52E8 [11] = experiment: cell-based; assay type: cell-based, human
From the text: as §1

[12] = wild-type, read-out: Potency EC50
[13] = changed C-term SEQ ID NO: 86, read-out: Potency EC50

T2 sequence (Q8NH73 with tags, fused parts or gaps A290K): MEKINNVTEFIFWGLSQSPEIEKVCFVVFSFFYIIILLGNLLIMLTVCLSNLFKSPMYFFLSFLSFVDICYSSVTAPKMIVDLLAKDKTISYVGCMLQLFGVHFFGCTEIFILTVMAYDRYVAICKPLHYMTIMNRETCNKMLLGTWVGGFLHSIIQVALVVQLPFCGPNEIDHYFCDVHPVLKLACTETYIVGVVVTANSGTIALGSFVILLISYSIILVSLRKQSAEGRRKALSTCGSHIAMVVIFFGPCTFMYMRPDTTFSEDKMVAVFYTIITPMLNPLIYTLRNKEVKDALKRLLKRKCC
T8 sequence (Q9UGF5 with tags, fused parts or gaps): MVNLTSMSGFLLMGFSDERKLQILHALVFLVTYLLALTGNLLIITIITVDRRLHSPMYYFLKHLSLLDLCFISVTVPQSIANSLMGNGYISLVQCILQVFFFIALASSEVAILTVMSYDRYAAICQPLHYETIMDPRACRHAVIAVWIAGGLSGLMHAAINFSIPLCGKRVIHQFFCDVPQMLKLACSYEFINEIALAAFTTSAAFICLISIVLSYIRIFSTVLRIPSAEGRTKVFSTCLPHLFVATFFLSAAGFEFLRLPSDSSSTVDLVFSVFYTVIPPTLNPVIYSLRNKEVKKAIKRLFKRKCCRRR

c1ccc2scnc2c1 [Benzothiazole]
Detection threshold; concentration for 2-fold induction (OR4S2 [1]): 29.4 µM
EC50 (OR4S2 [1]; [12]): 137 µM
Detection threshold; concentration for 2-fold induction (OR4S2 [2]): 12.5 µM
EC50 (OR4S2 [2]; [13]): 104 µM
Comments on efficacy (OR4S2 [3]): 2-fold lower maximal induction for wild-type
Fold-improvement potency (OR4S2 [3]): 1.3
Fold-improvement threshold (OR4S2 [3]): 2.4

C/C(=C\CC[C@@H](C)CCO)CCC=O [(R,E)-10-hydroxy-4,8-dimethyldec-4-enal]
EC20% (OR10J5): 24.4 µM

Cc1ccc2c(c1)OCC(=O)CO2 [Calone]
EC50 (OR10H5 [4]; [13]): 60 µM
Detection threshold; concentration for 2-fold induction (OR10H5 [4]; changed C-term. SEQ ID NO: 86): 24.3 µM
Comments on efficacy (OR10H5 [5]): 3-fold lower maximal induction for wild-type
Fold-improvement threshold (OR10H5 [5]): 2.5
Fold-improvement potency (OR10H5 [5]; higher EC50 due to much higher efficacy of optimized C-terminus): 0.7 *
Detection threshold; concentration for 2-fold induction (OR10H5 [6]): 60.1 µM
EC50 (OR10H5 [6]; read-out: Potency EC50): 41 µM

C=CC(C)(O)CCC=C(C)C (stereo not drawn) [Linalool]
Detection threshold; concentration for 2-fold induction (OR1C1 [7]): 34.7 µM
EC50 (OR1C1 [7]; [12]): 379 µM
Detection threshold; concentration for 2-fold induction (OR1C1 [8]): 16.2 µM
EC50 (OR1C1 [8]; [13]): 202 µM
Fold-improvement potency (OR1C1 [9]): 1.9
Fold-improvement threshold (OR1C1 [9]): 2.1

C[C@H]1CCC2(O)C(C)(C)C3CCC2(C)C1C3 (stereo partly drawn) [Patchoulol, (4S)-4,8a,9,9-tetramethyloctahydro-1,6-methanonaphthalen-1(2H)-ol]
activation of OR14J1 (OR14J1): activate OR14J1; also recorded: strong induction

CCCC(C)(O)CC(=O)O (stereo not drawn) [3-Methyl-3-Hydroxy-Hexanoic acid]
EC50 (OR52E8 [10]; changed C-term SEQ ID NO: 86): 69 µM
EC50 (OR52E8 [10]; wild-type): > 316 µM
Comments on efficacy (OR52E8 [11]): No induction wild-type
Fold-improvement potency (OR52E8 [11]): >>5
Fold-improvement threshold (OR52E8 [11]): >>5
